Legend:
[1] = xn = mol fraction of the nth substance listed; details: 101 kPa, Liquid
[2] = refractive index (Na D-line) (dimensionless); xn = mol fraction of the nth substance listed; details: 298.15 K, 101 kPa, Liquid, Standard Abbe refractometry
[3] = Liquid
[4] = refractive index (Na D-line) (dimensionless); details: 101.33 kPa, Liquid, Standard Abbe refractometry

CCOS(=O)(=O)[O-].CC[n+]1cccc(C)c1 [1-ethyl-3-methylpyridinium ethylsulfate] + CCO
[1]
Details | mass density, 298.15 K [kg/m3] | mass density, 313.15 K [kg/m3] | mass density, 328.15 K [kg/m3] | viscosity, 298.15 K [mPa·s] | viscosity, 313.15 K [mPa·s] | viscosity, 328.15 K [mPa·s]
x2 = 0.0609 | 1214.93 | 1205.03 | 1195.2 | 116.7 | 55.2 | 31.2
x2 = 0.1108 | 1208.33 | 1198.38 | 1188.52 | 96.9 | 48.57 | 28.12
x2 = 0.2066 | 1193.93 | 1183.86 | 1173.91 | 68 | 36.25 | 21.86
x2 = 0.3083 | 1175.71 | 1165.53 | 1155.46 | 45.35 | 25.91 | 16.41
x2 = 0.4004 | 1155.73 | 1145.51 | 1135.36 | 31.11 | 18.88 | 12.52
x2 = 0.4998 | 1129.53 | 1119.07 | 1108.74 | 20.04 | 12.92 | 8.971
x2 = 0.6034 | 1094.96 | 1084.3 | 1073.73 | 12.17 | 8.317 | 6.023
x2 = 0.7034 | 1051.68 | 1040.72 | 1029.83 | 7.452 | 5.332 | 3.99
x2 = 0.8452 | 961.67 | 950.09 | 938.48 | 3.322 | 2.502 | 1.943
x2 = 0.9389 | 870.77 | 858.52 | 846.1 | 1.812 | 1.388 | 1.086

[2]
Details | refractive index
x2 = 0.0609 | 1.50392
x2 = 0.1108 | 1.50181
x2 = 0.2066 | 1.4973
x2 = 0.3083 | 1.49126
x2 = 0.4004 | 1.48469
x2 = 0.4998 | 1.476
x2 = 0.6034 | 1.46448
x2 = 0.7034 | 1.45003
x2 = 0.8452 | 1.41977
x2 = 0.9389 | 1.38864

CCO [ethanol]
[3], 101 kPa
Details | mass density [kg/m3] | viscosity [mPa·s]
298.15 K | 785.46 | 1.082
313.15 K | 772 | 0.827
328.15 K | 758.55 | 0.641

Details | refractive index
[4], 298.15 K | 1.36023

CCO [ethanol] + CCOS(=O)(=O)[O-].CC[n+]1cccc(C)c1
[1], x1 = 1
Details | mass density [kg/m3] | viscosity [mPa·s]
298.15 K | 785.46 | 1.082
313.15 K | 772 | 0.827
328.15 K | 758.55 | 0.641

Details | refractive index
[2], x1 = 1 | 1.36023

CCOS(=O)(=O)[O-].CC[n+]1cccc(C)c1 [1-ethyl-3-methylpyridinium ethylsulfate]
[3], 101.33 kPa
Details | mass density [kg/m3] | viscosity [mPa·s]
298.15 K | 1222.26 | 161.4
303.15 K | 1219.02 | 123.6
308.15 K | 1215.78 | 96.9
313.15 K | 1212.54 | 77.1
318.15 K | 1209.39 | 62.2
323.15 K | 1206.13 | 50.55
328.15 K | 1202.86 | 42.32
333.15 K | 1199.63 | 35.52
338.15 K | 1196.43 | 30.11
343.15 K | 1193.25 | 25.69

[4]
Details | refractive index
298.15 K | 1.50666
303.15 K | 1.50525
308.15 K | 1.50386
313.15 K | 1.50246
318.15 K | 1.50106
323.15 K | 1.49965
328.15 K | 1.49825
333.15 K | 1.49683
338.15 K | 1.4954
343.15 K | 1.49361

CCOS(=O)(=O)[O-].CC[n+]1cccc(C)c1 [1-ethyl-3-methylpyridinium ethylsulfate] + O
[1]
Details | mass density, 298.15 K [kg/m3] | mass density, 313.15 K [kg/m3] | mass density, 328.15 K [kg/m3] | viscosity, 298.15 K [mPa·s] | viscosity, 313.15 K [mPa·s] | viscosity, 328.15 K [mPa·s]
x2 = 0.0526 | 1221.69 | 1211.82 | 1202.02 | 127.6 | 60.5 | 34.93
x2 = 0.1412 | 1220.12 | 1210.22 | 1200.35 | 102.1 | 50.28 | 29.83
x2 = 0.2445 | 1217.8 | 1207.83 | 1198.02 | 77.9 | 39.91 | 23.49
x2 = 0.3233 | 1215.58 | 1205.62 | 1195.72 | 62.3 | 32.92 | 19.76
x2 = 0.4174 | 1212.21 | 1202.21 | 1192.23 | 46.87 | 24.86 | 15.51
x2 = 0.4972 | 1208.39 | 1198.31 | 1188.24 | 36.11 | 20.36 | 12.78
x2 = 0.588 | 1202.53 | 1192.32 | 1182.14 | 26.83 | 15.52 | 9.894
x2 = 0.6975 | 1191.35 | 1180.92 | 1170.42 | 17.72 | 10.5 | 6.847
x2 = 0.7928 | 1174.05 | 1163.41 | 1152.61 | 11.18 | 6.778 | 4.508
x2 = 0.9005 | 1129.44 | 1119.24 | 1108.66 | 4.927 | 3.161 | 2.197
x2 = 0.9484 | 1086.2 | 1077.5 | 1068 | 2.717 | 1.818 | 1.315

[2]
Details | refractive index
x2 = 0.0526 | 1.50583
x2 = 0.1412 | 1.50427
x2 = 0.2445 | 1.50193
x2 = 0.3233 | 1.49986
x2 = 0.4174 | 1.49685
x2 = 0.4972 | 1.49329
x2 = 0.588 | 1.48806
x2 = 0.6975 | 1.47838
x2 = 0.7928 | 1.46398
x2 = 0.9005 | 1.42959
x2 = 0.9484 | 1.39796

— the NIST ThermoML archive (doi:10.1021/je800159w)
